The values below come from patent US20220125837A1, “METHODS FOR CONTROLLED ELIMINATION OF THERAPEUTIC CELLS” (Bellicum Pharmaceuticals, Inc., priority 2014, published 2022).

Where “and” joins values, the source holds several entries; their conditions need not be identical. Identical values can stand only once.

What all share (assay type): cell-based, human
The subject of data set [1] is gene-modified allodepleted cells (SFG.iCasp9.2A.CD19). As to the kind of experiment: Induction of apoptosis with AP20187 in gene-modified allodepleted cells (annexin V/7-AAD). The protocol:
Suicide gene functionality was assessed by adding a small molecule synthetic homodimerizer, AP20187 (Ariad Pharmaceuticals; Cambridge, Mass.), at 10 nM final concentration the day following CD19 immunomagnetic selection. Cells were stained with annexin V and 7-amino-actinomycin (7-AAD)(BD Pharmingen) at 24 hours and analyzed by flow cytometry. Cells negative for both annexin V and 7-AAD were considered viable, cells that were annexin V positive were apoptotic, and cells that were both annexin V and 7-AAD positive were necrotic. The percentage killing induced by dimerization was corrected for baseline viability as follows: Percentage killing=100%−(% Viability in AP20187-treated cells÷% Viability in non-treated cells).
The day following immunomagnetic selection, 10 nM of the chemical inducer of dimerization, AP20187, was added to induce apoptosis, which appeared within 24 hours.

Data set [2] relates to iCasp9M-transduced EBV-CTLs. As to the kind of experiment: CID-induced elimination of GFP+ iCasp9M-transduced EBV-CTLs (flow cytometry). For orientation: Flow cytometry measures light scatter and fluorescence of single cells or particles in a stream.
Data set [3] has as its system gene-modified allodepleted cells (SFG.iCasp9.2A.CD19). As to the kind of experiment: Suicide gene function after extended culture and reactivation. How it is done: Cells were maintained in T cell medium containing 50 U/ml IL-2 until 22 days after transduction. A portion of cells was reactivated on 24-well plates coated with […] OKT3 and 1 μg/ml anti-CD28 (Clone CD28.2, BD Pharmingen, San Jose, Calif.) for 48 to 72 hours. CD19 expression and suicide gene function in both reactivated and non-reactivated cells were measured on day 24 or 25 post transduction.
To assess the stability of transgene expression and function, cells were maintained in T cell culture medium and low dose IL-2 (50 U/ml) until […] after transduction. A portion of cells was then reactivated with OKT3/anti-CD28. CD19 expression was analyzed by flow cytometry 48 to 72 hours later, and suicide gene function was assessed by treatment with 10 nM AP20187. The obtained are for cells from day 5 post transduction (ie, 1 day after CD 19 selection) and day 24 post transduction, with or without 48-72 hours of reactivation (5 experiments). In 2 experiments, CD25 selection was performed after OKT3/aCD28 activation to further enrich activated cells. Error bars represent standard deviation. * indicates p<0.05 when compared to cells from day 5 post transduction. By day 24, surface CD19 expression fell from about 98%±1% to about 88%±4% (p<0.05) with a parallel decrease in mean fluorescence intensity (MFI) from 793±128 to 478±107 (p<0.05) (see FIG. 13B). Similarly, there was a significant reduction in suicide gene function: residual viability was 19.6±5.6% following treatment with AP20187; after correction for baseline viability of 54.8±20.9%, this equated to killing efficiency of only 63.1±6.2%.
To determine whether the decrease in transgene expression with time was due to reduced transcription following T cell quiescence or to elimination of transduced cells, a portion of cells were reactivated on day 22 post transduction with OKT3 and anti-CD28 antibody. […] CD19 expression increased from about 88%±4% to about 93%±4% (p<0.01) and CD19 MFI increased from 478±107 to 643±174 (p<0.01). […] 2±1.2%, which was the same as killing efficiency on day 5 post transduction (93.1±3.5%). Killing of the CD25 negative fraction was 78.6±9.1%.

Data set [4] deals with virus-specific T cells. Kind of data set: AP20187 on allostimulated gene-modified cells, pentamer analysis of virus-specific T cells. Conditions: 10 nM; after 4 days reactivation with allogeneic PBMC. The protocol:
In some experiments, cells also were cultured for 3 weeks post transduction and stimulated with 30G-irradiated allogeneic PBMC at a responder:stimulator ratio of 1:1. After 4 days of co-culture, a portion of cells was treated with 10 nM AP20187. Killing was measured by annexin V/7-AAD staining at 24 hours, and the effect of dimerizer on bystander virus-specific T cells was assessed by pentamer analysis on AP20187-treated and untreated cells.
An observation of note was that many virus-specific T cells were spared when dimerizer was used to deplete gene-modified cells that have been re-activated with allogeneic PBMC, rather than by non-specific mitogenic stimuli. […] Gene-modified allodepleted cells were maintained in culture for 3 weeks post-transduction to allow transgene down-modulation. Cells were stimulated with allogeneic PBMC for 4 days, following which a portion was treated with 10 nM AP20187.
The frequency of EBV-specific T cells and CMV-specific T cells were quantified by pentamer analysis before allostimulation, after allostimulation, and after treatment of allostimulated cells with dimerizer. The percentage of virus-specific T cells decreased after allostimulation. Following treatment with dimerizer, virus-specific T cells were partially and preferentially retained.

[5] abbreviates: large-scale CD19 selection (n=3).

Turning to `CC[C@H](C(=O)N1CCCC[C@H]1C(=O)O[C@H](CCc1ccc(OC)c(OC)c1)c1cccc(OCC(=O)NCC(CNC(=O)COc2cccc([C@@H](CCc3ccc(OC)c(OC)c3)OC(=O)[C@@H]3CCCCN3C(=O)[C@@H](CC)c3cc(OC)c(OC)c(OC)c3)c2)CN(C)C)c1)c1cc(OC)c(OC)c(OC)c1` [AP20187], the “Killing efficiency after correction for baseline viability” value in data set [1] (10 nM, 24 hours) is reported as “about 92.9%±3.8%”. For the same molecule, the “AP20187-treated cells remaining viable” value in data set [1] (10 nM, 24 hours, day following CD19 selection) is given as “about 5.5%±2.5%”. In data set [1] (iCasp9 donor T cells), the “apoptosis after treatment with dimerizer” value is recorded as over 90%. The “mean viability with AP20187” value in data set [1] (setting [5]) is “about 3.9%”; in data set [1] (small-scale selection (n=5)), “about 6.6%”. In addition, the percentage killing result in data set [1] (setting [5]) is recorded as “about 95.4%”; in data set [1] (small-scale selection (n=5)), “about 91.4%”. For the same molecule, the “reduction in mean fluorescence intensity of GFP after CID” value in data set [2] (CTLs that survived CID treatment) is 70%. Besides, in data set [2] (F-Casp9M.I.GFPhigh, survival of GFP+ cells on day 7), the “CID sufficient to obtain the maximal deletion effect” value worked out at 1 nM. Also, the “Elimination of GFP+ cells” value in data set [2] (iCasp9M-transduced CTLs, GFPhigh, 1:1 with nontransduced, 10 nM CID, day 7) turned out to be 99.2%+/−0.14%. Further, in data set [2] (single 10-nM dose of CID, unselected iCasp9M CTLs, 5 donors), the “GFP+ cells eliminated” value was determined as 91.3%. In data set [3] (CD25 negative fraction), this molecule showed a killing of 78.6±9.1%. Moreover, the killing efficiency was ~84.6%±8.0% in data set [3] (OKT3/aCD28-reactivated cells, day 24 or 25); 93.1±3.5% in data set [3] (day 5 post transduction); 63.1±6.2% and ~63.1%±6.2% in data set [3] (day 24 post transduction, non-reactivated). In data set [3] (day 24 post transduction, non-reactivated, 10 nM), the “residual viability following treatment with AP20187” value is given as 19.6±5.6%. Also, the “effect on virus-specific T cells” value in data set [4] was “spares (and thereby enriches) viral reactive subpopulations”.
